Measured values as given in ChEMBL document CHEMBL1201862, “PubChem BioAssay data set” (2004).
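Briefly, cells in 96-well plates were exposed to five compound concentrations for 48 h, and endpoints were estimated by linear interpolation. At the GI50, growth is halved.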 Activity calls are given as the source filed them. Cut-off read from the data, not from the text of the source: active = GI50 up to about 1.1 µM and inactive = higher.

Experiments:
Experiment in all cases: NCI anticancer screen, dose series, 48 h
NCI-H460 = test system: NCI-H460
CCRF-CEM = test system: CCRF-CEM
SR = test system: SR
SF-268 = test system: SF-268
LOX IMVI = test system: LOX IMVI
KM12 = test system: KM12
CAKI-1 = test system: CAKI-1
HT-29 = test system: HT-29
TK-10 = test system: TK-10
OVCAR-8 = test system: OVCAR-8
SNB-19 = test system: SNB-19
SNB-75 = test system: SNB-75
ACHN = test system: ACHN
HOP-92 = test system: HOP-92
HCT-15 = test system: HCT-15
SN12C = test system: SN12C
M14 = test system: M14
UACC-62 = test system: UACC-62
MDA-MB-231 = test system: MDA-MB-231
SK-OV-3 = test system: SK-OV-3

SMILES | GI50 (NCI-H460) | GI50 (CCRF-CEM) | GI50 (SR) | GI50 (SF-268) | GI50 (LOX IMVI) | GI50 (KM12) | GI50 (CAKI-1) | GI50 (HT-29) | GI50 (TK-10) | GI50 (OVCAR-8) | GI50 (SNB-19) | GI50 (SNB-75) | GI50 (ACHN) | GI50 (HOP-92) | GI50 (HCT-15) | GI50 (SN12C) | GI50 (M14) | GI50 (UACC-62) | GI50 (MDA-MB-231) | GI50 (SK-OV-3)
CCCCCCCC(=O)O[C@H]1[C@H]2[C@@H](CC1(C)C)C(=O)[C@]13O[C@H]1C(=O)[C@]1(CO1)[C@]23C | 5.71 µM (inactive) | 0.0615 µM (active) | 2.07 µM (inactive) | 6.01 µM (inactive) | 1.34 µM (inactive) | 7.73 µM (inactive) | 2.62 µM (inactive) | 5.19 µM (inactive) | 2.75 µM (inactive) | 2.48 µM (inactive) | 17.7 µM (inactive) | 23.4 µM (inactive) | 2 µM (inactive) | 1.97 µM (inactive) | 2.96 µM | 4.17 µM (inactive) | 3.92 µM (inactive) | 3.55 µM (inactive) | 25.5 µM (inactive) | 34.3 µM (inactive)
CC(C)(C)c1ccc(-c2nnc(SCc3ccc(Cl)cc3)n2-c2cccc(C(F)(F)F)c2)cc1 | 7.23 µM (inactive) | 7.87 µM (inactive) | 5.82 µM (inactive) | 25 µM (inactive) | 31.3 µM (inactive) | 8.2 µM (inactive) | 73.5 µM (inactive) | 5.47 µM (inactive) | 39.4 µM (inactive) | 15.6 µM (inactive) | 36.1 µM (inactive) | 27.5 µM (inactive) | 20.3 µM (inactive) | 19.8 µM (inactive) | 8.73 µM | 4.24 µM (inactive) | 15 µM (inactive) | 22.5 µM (inactive) | > 69 µM (inactive) | 8.32 µM (inactive)
CCOC(=O)C1=C(C)NC(=S)NC1c1cccc(O)c1 (stereo not given) [MONASTROL] | 39.8 µM (inactive) | 34.7 µM (inactive) | 31.5 µM (inactive) | 56.5 µM (inactive) | 72.8 µM (inactive) | 35 µM (inactive) | 63.8 µM (inactive) | > 86.3 µM (inactive) | > 100 µM (inactive) | 57.7 µM (inactive) | 76.4 µM (inactive) | 37.2 µM (inactive) | 85.3 µM (inactive) | 32.4 µM (inactive) | 39.4 µM | 35.5 µM (inactive) | 23.5 µM (inactive) | 36.6 µM (inactive) | 38.6 µM (inactive) | 57.8 µM (inactive)
Cn1c2ccc(F)cc2c2ccc3c(c21)C(=O)C=CC3=O | > 57.3 µM (inactive) | 0.544 µM (active) | 1.56 µM (inactive) | 21 µM (inactive) | 6.17 µM (inactive) | 31.5 µM (inactive) | 4.23 µM (inactive) | 19.5 µM (inactive) | 4.56 µM (inactive) | 9.35 µM (inactive) | 50.8 µM (inactive) | 33.3 µM (inactive) | 5.85 µM (inactive) | 6.22 µM (inactive) | 13.7 µM | 15.4 µM (inactive) | 12.1 µM (inactive) | 20.5 µM (inactive) | 4.09 µM (inactive) | 61 µM (inactive)
Cc1cn(CCOCCOC(=O)NC(CCCNC(N)=O)C(=O)O)c(=O)[nH]c1=O (stereo not given) | > 100 µM (inactive) | > 100 µM (inactive) | > 100 µM (inactive) | > 100 µM (inactive) | > 100 µM (inactive) | > 100 µM (inactive) | > 100 µM (inactive) | > 100 µM (inactive) | > 100 µM (inactive) | > 100 µM (inactive) | > 100 µM (inactive) | > 100 µM (inactive) | > 100 µM (inactive) | > 100 µM (inactive) | > 100 µM | > 100 µM (inactive) | > 100 µM (inactive) | > 100 µM (inactive) | > 100 µM (inactive) | > 100 µM (inactive)
Cc1nc2c(C)c3c([nH]c4ccc(Cl)cc43)c(C)c2c(O)c1C | 2.07 µM (inactive) | 2.91 µM (inactive) | 2.19 µM (inactive) | 16.1 µM (inactive) | 4.06 µM (inactive) | 10.4 µM (inactive) | 5.71 µM (inactive) | 4.37 µM (inactive) | 7.33 µM (inactive) | 4.88 µM (inactive) | 15.7 µM (inactive) | 16.8 µM (inactive) | 2.75 µM (inactive) | 9.53 µM (inactive) | 3.21 µM | 5.24 µM (inactive) | 10.9 µM (inactive) | 6.44 µM (inactive) | 2.44 µM (inactive) | 16.5 µM (inactive)
